# Reference: patent US20200188466A1, “COMPOSITIONS OF SCHISANDRA EXTRACTS AND METHODS THEREOF” (Reyoung Corporation, priority 2017, published 2020)
# Experiment: in vivo
# Set-up: species or system Sprague Dawley rats
# Conditions: male, Sprague Dawley, rat, po, 2.4 mg/kg
# Method: 42 Male Sprague Dawley rats (weight, 220-280 g) were maintained on a 12-hour light/dark cycle with free access to water and lab chow for 10-14 hours prior to the experiment. Rats were randomly divided into 7 groups (n=6/group) and groups 2-7 received 0 mg/kg, 6.0 mg/kg, and 12.0 mg/kg, 24.0 mg/kg, 48.0 mg/kg and 60.0 mg/kg of Schisandrin A in 1% CMC-Na (300-800 cps) via oral administration, respectively. After 5 minutes, all the groups received 2.4 mg/kg of triptolide in a solution of 2% DMSO-98% Sterile Water via oral administration.
# After triptolide treatment, blood samples were collected from individual rat at 5 min, 10 min, 15 min, 20 min, 30 min, 45 min, 1 h, 2 h, 4 h, 8 h, and 24 h, respectively. Plasma was separated by centrifugation at 8000 rpm for 6 minutes at 4° C. and kept at −80° C. until analysis. Plasma homogenate was injected into LC-MS/MS for analysis.
smiles,measurement,setting,value
CC(C)[C@]12O[C@H]1[C@@H]1O[C@]13[C@]1(O[C@H]1C[C@H]1C4=C(CC[C@@]13C)C(=O)OC4)[C@@H]2O [triptolide],AUC(0-t),AUC0→t of triptolide,0.0315 ± 0.0254 µg·h/mL
same,AUC(0-inf),AUC0→∞ of triptolide,0.0315 ± 0.0254 µg·h/mL
same,Cmax,Cmax of triptolide,0.0564 ± 0.0251 µg/mL
same,MRT last,MRT0→t of triptolide,25.8 ± 9.6 min
same,MRT inf,MRT0→∞ of triptolide,39.6 ± 21 min
same,half-life,T1/2 of triptolide,25.2 ± 13.8 min
same,Tmax,Tmax of triptolide,9.96 ± 5.4 min
